# Reference: ChEMBL document CHEMBL1201862, “PubChem BioAssay data set” (2004)
# Active and inactive are the calls of the source. Numbered stars: 1 amine (or outer) side, 2 acyl side, 3 side chain; on linkers, the order of the positions; unused ones are H or OH. Square brackets hold non-standard residues; d marks the D form. Peptide text beside a SMILES is read from it. ξ: configuration not given here. ξR = N=C(N)NCCCC(N)C(=O)O; ξF = NC(Cc1ccccc1)C(=O)O; CO = O=C([*:1])[*:2]
# Columns and labels:
# HEK293 = assay: inhibitors of LMP1-driven NF-kB reporter, dose response, cell-based, HEK293, luciferase, cherry-pick (AID 588343); assay type: functional; settings: Homo sapiens
# Cytochrome P450 2C9 [1] = target: T1, Cytochrome P450 2C9 (Homo sapiens, UniProt P11712)
# [2] = target: T2, Latent membrane protein 1 (Human herpesvirus 4 (strain B95-8), UniProt P03230); assay: TES1-eGFP NF-kB reporter inhibition versus Tet-On dsRED, dose response, selectivity assay for LMP1 NF-kB inhibitor project, imaging, HEK293T, dual-color eGFP/dsRED, cherry-picks (AID 588398); assay type: functional, cell-based
# T2 sequence (P03230 whole entry): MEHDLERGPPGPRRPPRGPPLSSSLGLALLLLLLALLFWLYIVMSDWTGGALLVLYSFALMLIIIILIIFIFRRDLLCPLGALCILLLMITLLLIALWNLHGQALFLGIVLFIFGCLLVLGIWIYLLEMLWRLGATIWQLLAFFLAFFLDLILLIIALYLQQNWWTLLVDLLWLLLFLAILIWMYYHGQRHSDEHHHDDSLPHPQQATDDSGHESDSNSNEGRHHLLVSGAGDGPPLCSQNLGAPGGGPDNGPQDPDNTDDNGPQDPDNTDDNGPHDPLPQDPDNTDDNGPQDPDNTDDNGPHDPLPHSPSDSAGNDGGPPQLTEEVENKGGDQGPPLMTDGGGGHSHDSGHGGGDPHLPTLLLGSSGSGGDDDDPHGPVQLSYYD
# [3] = target: T3, Type-1 angiotensin II receptor (Homo sapiens, UniProt P30556); assay: AT1 receptor antagonists, dose response, selectivity assay for APJ receptor antagonist project, cell-based, uHTS hits (AID 463214); assay type: functional;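 note: antagonist potency against angiotensin II stimulated AT1 response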
# T3 sequence (P30556 whole entry): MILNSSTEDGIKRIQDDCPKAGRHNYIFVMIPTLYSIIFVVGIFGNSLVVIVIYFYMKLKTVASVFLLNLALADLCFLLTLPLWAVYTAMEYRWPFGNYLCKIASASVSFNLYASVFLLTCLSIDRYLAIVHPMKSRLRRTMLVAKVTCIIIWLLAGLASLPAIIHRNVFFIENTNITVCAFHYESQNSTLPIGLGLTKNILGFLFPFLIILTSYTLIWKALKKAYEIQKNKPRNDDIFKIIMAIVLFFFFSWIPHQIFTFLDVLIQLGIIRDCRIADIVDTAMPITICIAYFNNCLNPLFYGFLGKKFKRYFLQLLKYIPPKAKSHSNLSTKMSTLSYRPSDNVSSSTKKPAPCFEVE
# Beta-galactosidase = Beta-galactosidase (Escherichia coli, UniProt Q8VNN2); assay: PubChem AID 485352; assay type: functional
# Coagulation factor XII = target: T4, Coagulation factor XII (Homo sapiens, UniProt P00748); assay type: functional;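 note: activated factor XIIa alpha cleaving a fluorogenic AMC peptide substrate; inhibitor potency from loss of enzyme activity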
# T4 sequence (P00748 whole entry): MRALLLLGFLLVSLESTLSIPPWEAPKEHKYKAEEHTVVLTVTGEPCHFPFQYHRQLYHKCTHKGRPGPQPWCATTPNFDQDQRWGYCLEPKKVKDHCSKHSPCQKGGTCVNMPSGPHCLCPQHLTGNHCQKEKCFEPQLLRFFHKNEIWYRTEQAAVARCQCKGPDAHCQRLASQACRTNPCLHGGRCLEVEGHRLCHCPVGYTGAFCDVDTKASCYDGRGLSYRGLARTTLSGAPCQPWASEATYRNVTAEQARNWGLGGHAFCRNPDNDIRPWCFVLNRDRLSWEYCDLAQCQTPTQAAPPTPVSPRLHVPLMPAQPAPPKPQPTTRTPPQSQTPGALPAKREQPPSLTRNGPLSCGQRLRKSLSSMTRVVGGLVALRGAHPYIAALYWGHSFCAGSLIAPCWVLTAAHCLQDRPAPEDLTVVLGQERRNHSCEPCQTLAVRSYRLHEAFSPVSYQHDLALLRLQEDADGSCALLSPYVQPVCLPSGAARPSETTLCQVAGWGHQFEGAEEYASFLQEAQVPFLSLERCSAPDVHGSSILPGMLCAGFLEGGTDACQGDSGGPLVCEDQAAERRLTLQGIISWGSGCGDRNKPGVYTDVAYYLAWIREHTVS
# [4] = target: T5, Short transient receptor potential channel 4 (Mus musculus, UniProt Q9QUQ5); assay: mouse TRPC4 channel inhibitors, dose response, cell-based, HEK293 TRPC4/mu-opioid, Fluo-4 calcium (AID 434942); assay type: functional;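 note: potency of inhibitors blocking the TRPC4 calcium response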
# T5 sequence (Q9QUQ5 whole entry): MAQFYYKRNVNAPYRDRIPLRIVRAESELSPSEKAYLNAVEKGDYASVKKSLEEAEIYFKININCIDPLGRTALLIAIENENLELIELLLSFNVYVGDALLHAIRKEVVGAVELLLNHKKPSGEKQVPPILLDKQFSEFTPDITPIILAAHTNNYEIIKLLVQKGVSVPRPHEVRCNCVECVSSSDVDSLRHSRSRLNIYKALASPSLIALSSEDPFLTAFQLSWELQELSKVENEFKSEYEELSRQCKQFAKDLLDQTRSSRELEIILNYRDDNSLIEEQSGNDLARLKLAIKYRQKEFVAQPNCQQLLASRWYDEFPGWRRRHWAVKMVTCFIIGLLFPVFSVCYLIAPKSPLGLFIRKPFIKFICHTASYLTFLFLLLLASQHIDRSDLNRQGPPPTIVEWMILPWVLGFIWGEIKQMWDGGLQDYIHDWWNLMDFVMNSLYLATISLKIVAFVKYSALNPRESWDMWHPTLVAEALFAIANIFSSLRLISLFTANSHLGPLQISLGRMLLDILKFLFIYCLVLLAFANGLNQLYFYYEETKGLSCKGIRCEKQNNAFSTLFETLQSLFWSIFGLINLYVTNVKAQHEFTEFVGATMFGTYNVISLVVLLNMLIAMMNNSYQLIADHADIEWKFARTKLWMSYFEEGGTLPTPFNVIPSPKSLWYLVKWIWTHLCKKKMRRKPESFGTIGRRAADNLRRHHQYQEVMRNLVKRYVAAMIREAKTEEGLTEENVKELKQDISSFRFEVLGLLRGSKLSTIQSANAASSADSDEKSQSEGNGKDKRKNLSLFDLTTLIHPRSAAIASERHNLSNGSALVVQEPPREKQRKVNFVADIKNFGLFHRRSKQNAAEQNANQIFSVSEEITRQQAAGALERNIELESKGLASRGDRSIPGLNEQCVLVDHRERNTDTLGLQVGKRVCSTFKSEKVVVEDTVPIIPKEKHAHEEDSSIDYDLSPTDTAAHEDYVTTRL
# [5] = target: T5, Short transient receptor potential channel 4; assay: mouse TRPC4 channel activators, dose response, cell-based, HEK293 TRPC4/mu-opioid, Fluo-4 calcium (AID 434937); assay type: functional
# Escherichia coli = assay: microbe, parasite or virus in culture
# Cytochrome P450 1A2 = target: T6, Cytochrome P450 1A2 (Homo sapiens, UniProt P05177);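 note: PubChem cytochrome P450 panel assay, CYP1A2 panel member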
# T6 sequence (P05177 whole entry): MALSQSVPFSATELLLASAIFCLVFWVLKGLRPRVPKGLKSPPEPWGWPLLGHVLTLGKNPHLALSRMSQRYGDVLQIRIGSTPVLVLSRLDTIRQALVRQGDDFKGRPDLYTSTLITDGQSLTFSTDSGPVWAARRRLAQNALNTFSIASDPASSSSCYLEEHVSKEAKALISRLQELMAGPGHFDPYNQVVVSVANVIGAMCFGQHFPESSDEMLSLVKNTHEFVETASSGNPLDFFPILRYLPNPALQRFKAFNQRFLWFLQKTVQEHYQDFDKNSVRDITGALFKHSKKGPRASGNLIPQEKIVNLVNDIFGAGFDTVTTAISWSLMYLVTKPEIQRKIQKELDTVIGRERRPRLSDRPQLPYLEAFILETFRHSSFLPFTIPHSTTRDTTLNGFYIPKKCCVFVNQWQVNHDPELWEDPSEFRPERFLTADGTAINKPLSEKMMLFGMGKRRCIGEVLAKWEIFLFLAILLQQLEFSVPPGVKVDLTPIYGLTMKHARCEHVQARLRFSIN
# Cytochrome P450 2C9 [6] = target: T1, Cytochrome P450 2C9; remark: listed apart in the source
# [7] = Luminescence Cell-Based Dose Retest to Confirm Inhibitors of Cancer Stem Cells. [Related pubchem assays (depositor defined):AID2717, AID2721]; assay type: functional; settings: Homo sapiens
# Vero = assay: cells; assay type: functional, cell-based; settings: Chlorocebus sabaeus
# [8] = inhibitors of firefly luciferase expression or activity, dose response, H4 neuroglioma cells, luminescence (AID 1990); assay type: functional, cell-based
# [9] = inhibitors of SNCA 5'UTR-driven reporter translation, confirmation, H4 neuroglioma cells, luminescence (AID 1988); assay type: functional, cell-based
# [10] = Luminescence Cell-Based Dose Response HTS to Identify Inhibitors of 5'UTR Stem-Loop Driven Prion Protein mRNA Translation in H4 Neuroglioblastoma Cells. [Related pubchem assays: 1827 (Project Summary), 1813 (Primary HTS)]; assay type: functional
# Cytochrome P450 2C19 = Cytochrome P450 2C19 (Homo sapiens, UniProt P33261); assay: Cytochrome panel assay with activity outcomes. Panel member name: p450-cyp2c19 Compounds with AC50 equal or less than 10 uM are considered active; assay type: functional; settings: read-out: AC50
# Cytochrome P450 2C19, sequence (P33261 whole entry): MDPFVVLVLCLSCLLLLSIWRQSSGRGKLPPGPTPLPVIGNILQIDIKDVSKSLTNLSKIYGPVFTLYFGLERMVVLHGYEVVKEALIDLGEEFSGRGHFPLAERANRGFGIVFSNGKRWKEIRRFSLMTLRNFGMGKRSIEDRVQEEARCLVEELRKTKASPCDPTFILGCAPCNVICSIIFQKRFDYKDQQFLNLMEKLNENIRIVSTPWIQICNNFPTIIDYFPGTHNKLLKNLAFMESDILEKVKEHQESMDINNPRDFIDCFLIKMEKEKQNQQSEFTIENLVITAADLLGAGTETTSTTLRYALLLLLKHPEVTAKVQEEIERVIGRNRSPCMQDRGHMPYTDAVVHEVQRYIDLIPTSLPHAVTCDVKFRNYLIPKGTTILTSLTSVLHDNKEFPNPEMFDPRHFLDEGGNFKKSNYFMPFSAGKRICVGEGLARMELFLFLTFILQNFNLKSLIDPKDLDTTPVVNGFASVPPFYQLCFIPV
# T1 sequence (P11712 whole entry): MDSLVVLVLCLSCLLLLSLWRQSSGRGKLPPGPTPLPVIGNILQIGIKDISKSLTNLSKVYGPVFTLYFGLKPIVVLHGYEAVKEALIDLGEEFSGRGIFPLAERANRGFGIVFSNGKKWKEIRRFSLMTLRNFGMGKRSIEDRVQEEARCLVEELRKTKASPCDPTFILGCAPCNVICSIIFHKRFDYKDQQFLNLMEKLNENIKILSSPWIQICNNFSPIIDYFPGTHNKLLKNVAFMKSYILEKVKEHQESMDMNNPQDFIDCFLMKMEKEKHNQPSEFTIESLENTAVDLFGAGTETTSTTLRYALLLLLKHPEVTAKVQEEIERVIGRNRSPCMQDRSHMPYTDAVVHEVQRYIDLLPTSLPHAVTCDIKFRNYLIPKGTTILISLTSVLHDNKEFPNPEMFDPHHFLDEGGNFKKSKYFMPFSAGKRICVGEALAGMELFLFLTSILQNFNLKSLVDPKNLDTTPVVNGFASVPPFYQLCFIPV
# Beta-galactosidase, sequence (Q8VNN2 whole entry): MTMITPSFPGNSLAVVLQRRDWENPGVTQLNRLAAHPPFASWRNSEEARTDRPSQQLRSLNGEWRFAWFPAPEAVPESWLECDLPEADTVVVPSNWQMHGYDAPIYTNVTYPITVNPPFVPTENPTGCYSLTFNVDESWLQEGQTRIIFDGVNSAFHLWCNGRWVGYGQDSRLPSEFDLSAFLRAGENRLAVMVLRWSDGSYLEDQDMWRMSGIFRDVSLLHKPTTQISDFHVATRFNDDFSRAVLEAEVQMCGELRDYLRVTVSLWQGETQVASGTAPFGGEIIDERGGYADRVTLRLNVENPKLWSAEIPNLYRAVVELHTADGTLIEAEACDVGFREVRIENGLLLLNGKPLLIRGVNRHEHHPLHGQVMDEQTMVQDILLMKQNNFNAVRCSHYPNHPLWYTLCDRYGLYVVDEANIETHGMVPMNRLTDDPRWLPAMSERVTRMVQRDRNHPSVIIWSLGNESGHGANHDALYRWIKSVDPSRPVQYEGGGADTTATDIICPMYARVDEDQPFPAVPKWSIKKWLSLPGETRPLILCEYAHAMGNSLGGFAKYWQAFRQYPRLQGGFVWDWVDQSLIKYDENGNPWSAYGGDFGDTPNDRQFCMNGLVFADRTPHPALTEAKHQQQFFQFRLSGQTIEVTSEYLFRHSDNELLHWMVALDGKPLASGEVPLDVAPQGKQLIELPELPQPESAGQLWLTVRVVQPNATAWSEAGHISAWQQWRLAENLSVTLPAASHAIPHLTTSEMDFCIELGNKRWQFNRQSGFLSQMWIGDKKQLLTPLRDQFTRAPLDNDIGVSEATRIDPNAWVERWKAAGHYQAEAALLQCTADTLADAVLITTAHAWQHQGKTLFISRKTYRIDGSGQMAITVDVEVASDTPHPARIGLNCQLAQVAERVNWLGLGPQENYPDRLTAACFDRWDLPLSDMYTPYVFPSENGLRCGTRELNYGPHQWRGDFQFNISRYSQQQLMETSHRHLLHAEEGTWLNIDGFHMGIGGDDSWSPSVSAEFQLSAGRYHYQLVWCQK
smiles,measurement,setting,value
O=C1/C(=C/c2cccnc2)SC(=S)N1Cc1ccco1,AC50,HEK293,0.758 µM (active)
same,AC50,Cytochrome P450 2C9 [1],6.31 µM (inconclusive)
same,AC50,[2],39.5 µM (active)
O=C(c1ccco1)C(O)c1ccco1 (configuration not stated),IC50,[3],35.2 µM (not active)
same,EC50,Beta-galactosidase,> 40 µM (inactive)
Cn1c(-c2ccccc2)cnc1SCC(N)=O,IC50,Coagulation factor XII,> 50 µM (inactive)
O=C(N/N=C/c1cccnc1)c1ccccc1OCc1ccc(Cl)cc1,EC50,[4],1.5 µM (active)
same,EC50,[5],3.35 µM (active)
CC(=O)NC(Cc1c[nH]cn1)C(=O)O (configuration not stated),AC50,Escherichia coli,29.2 µM (active)
Cn1c(C(N)=O)cnc1Sc1ncc(C(F)(F)F)cc1Cl,AC50,Cytochrome P450 1A2,28.2 µM (inconclusive)
same,AC50,Cytochrome P450 2C9 [6],inconclusive
Cn1c(N)c(C(=O)COC(=O)CCCN2C(=O)c3ccccc3C2=O)c(=O)n(C)c1=O,AC50,Escherichia coli,31.9 µM (active)
CN1CCN(/N=C/c2ccc(N(c3ccccc3)c3ccccc3)cc2)CC1,AC50,HEK293,0.907 µM (active)
same,AC50,[7],5.11 µM (active)
same,AC50,[2],0.147 µM (active)
NC(=O)c1nn(-c2ccccc2)c(=O)cc1O,AC50,Cytochrome P450 2C9 [6],inconclusive
CCC(=O)NC(C)C(c1cccs1)N1CCN(c2ccccc2)CC1 (configuration not stated),EC50,[5],0.421 µM (active)
CC(C)(C)OC(=O)[C@H](Cc1ccccc1)NC(=O)c1[nH]cnc1C(=O)N1CCN(C(=O)OC(C)(C)C)CC1,IC50,Vero,18.3 µM (active)
same,EC50,[8],61.6 µM (active)
same,EC50,[9],26.6 µM (active)
same,EC50,[10],20 µM (active)
Oc1c2nc3cccc(Cl)c3c-2ncn1CCN1CCCCC1,IC50,Coagulation factor XII,> 50 µM (inactive)
O=C(NC1CCCc2ccccc21)c1ccc(O)nc1 (configuration not stated),AC50,Cytochrome P450 2C9 [6],inconclusive
O=C(CN1C(=O)C2C3CC(C(Br)C3Br)C2C1=O)OCC(=O)c1cccc([N+](=O)[O-])c1 (configuration not stated),IC50,[3],20.4 µM (not active)
same,EC50,Beta-galactosidase,> 40 µM (inactive)
Cc1noc(C)c1C(=O)NNc1ccc(C(C)C)cc1,IC50,[3],3.68 µM (active)
same,EC50,Beta-galactosidase,> 40 µM (inactive)
Cc1ccc(NC(S)=NCCC2=CCCCC2)cc1,AC50,Escherichia coli,115 µM (active)
COc1ccccc1NC(=O)CSc1nnnn1C,IC50,Coagulation factor XII,> 50 µM (inactive)
CC(C)(C)C(=O)N1N=C(Nc2ccccc2)SC1(C)C,IC50,Coagulation factor XII,> 50 µM (inactive)
Cc1ccc2c(c1)nnn2C1CCN(CC(=O)N2c3ccccc3CC2C)CC1 (configuration not stated),AC50,Cytochrome P450 1A2,6.31 µM (inconclusive)
same,AC50,Cytochrome P450 2C9 [6],inconclusive
same,EC50,[8],> 120 µM (not active)
same,EC50,[9],81.6 µM (active)
same,EC50,[10],> 120 µM (not active)
Cc1ccc(C(=O)NC2CCCCC2)cc1,AC50,Cytochrome P450 1A2,22.4 µM (inconclusive)
same,AC50,Cytochrome P450 2C9 [6],inconclusive
same,AC50,Cytochrome P450 2C19,25.1 µM (inconclusive)
COc1ccc(C)c(NC(=O)NCCc2c[nH]cn2)c1,EC50,[5],1.88 µM (active)
CC(C)[C@H](NC(=O)[C@H](CCCN=C(N)N)NC(=O)NC(Cc1ccccc1)C(=O)O)C(=O)NC(C=O)CCCN=C(N)N (stereo partly drawn) ({ξF-CO}-Arg-Val-[ξR]-aldehyde),IC50,Coagulation factor XII,5.87 µM (active)
COc1cc(OC)cc(C(=O)N[C@H](C(=O)OCC(=O)c2ccc(C)c([N+](=O)[O-])c2)C(C)C)c1,IC50,[3],> 40 µM (not active)
same,AC50,[2],42.8 µM (active)
same,EC50,Beta-galactosidase,> 40 µM (inactive)
COc1cc2c(=O)n(CC3CCCO3)c(=O)n(CC(=O)Nc3cccc(Cl)c3)c2cc1OC (configuration not stated),AC50,HEK293,84.3 µM (active)
same,AC50,[2],277 µM (active)
OC1(c2cccs2)C[N+](c2ccc(Cl)cc2)=C2CCCCN21 (configuration not stated),IC50,Vero,8.4 µM (active)
same,EC50,[4],2.66 µM (active)
